Like-named read-outs stand apart in the source and are kept apart here.

For series [1] the following is noted: female, SCID, mouse, in vivo, iv.
For series [2] the following is noted: SCID, mouse, in vivo, iv.
Series [3] can be described thus: Dox-Hyd-C18 nanoparticles: plasma, liver and lung levels in female SCID mice. The series is classed as in vivo. As to conditions: about 1.8 mg-eq/kg IV.
Series [4] can be described thus: Dox-Hyd-C12 nanoparticles: plasma, liver and lung levels in female SCID mice. As to conditions: Dox-Hyd-C12 nanoparticle study, about 2.2 mg-eq/kg IV.

With `Cn1c(CCCC(=O)O)nc2cc(N(CCCl)CCCl)ccc21` [Bendamustine, bendamustine], in series [1], the AUC0-t stood at 566 ng·h/mL, the “AUC0-∞” value came out at 589 ng·h/mL and the tmax was 0083 h. Besides, the tmax in series [2] is 4.98 min.
As to `CCCCCCCCCCCCCCCCCC(=O)NN=C(CO)[C@]1(O)Cc2c(O)c3c(c(O)c2[C@@H](O[C@H]2C[C@H](N)[C@H](O)[C@H](C)O2)C1)C(=O)c1c(OC)cccc1C3=O` [Dox-Hyd-C18], in series [3], the “doxorubicin from hydrolysis of prodrug in tissue” value is “detected in liver and lung tissue”; the “time nanoparticles circulate in plasma” value is reported as “up to 24 hours”. For the same compound, in series [4], the “doxorubicin from hydrolysis of prodrug in tissue” value was “detected in liver and lung tissue”.

(Values after US11071789B2, “Pharmaceutical prodrugs and methods of their preparation and use” (CEPHALON, INC., priority 2016, dated 2021).)
